Measured values as given in patent US9315859B2, “DDAO compounds as fluorescent reference standards” (LIFE TECHNOLOGIES CORPORATION, priority 2010, dated 2016).

Key:
Type in all cases: physicochemical
[1] = Resilience to harsh oxidation: free dye with benzoyl peroxide, fluorescence decay; conditions: about 1 μM free dye in Tris-EDTA buffer/MeOH, 5 μl 0.5M benzoyl peroxide in acetonitrile per 1 ml, read at 5 minute intervals, compared with ROX
Experimental: Regarding chemical stability, DDAO congeners appear to have resilience under various conditions, such as oxidation, photo-degradation, and the like. For example, regarding resilience to harsh oxidation, DDAO, Sulfo-DDAO, and ROX were each suspended as free dyes in a solution of 1.4 of Tris-EDTA buffer (1× stock concentration) in MeOH at a concentration of approximately 1 μM. Five μl of 0.5M benzoyl peroxide in acetonitrile was added to 1 ml of the dye composition in a fluorimeter cuvette. Fluorescence emission intensity was measured at each dye's emission maximum immediately, and then at 5 minute intervals. A first-order exponential curve was fit to the data to calculate the decay rate for each dye. FIG. 7 is a graph showing the results of that experiment. […] As such, the reference dyes of formula (I) can be used in assays in which the assay components might come in contact with oxidants.

[2] = Normalized fluorescent emission as a function of temperature; conditions: signals normalized to the 94° C. data point; compared with 6-FAM and ROX
Experimental: FIG. 6 depicts a graph of normalized fluorescent emission as a traction of temperature for Sulfo-DDAO in comparison to a reporter dye, 6-FAM, as well as a reference dye, ROX. Given the difference in brightness of the dyes shown, each data point for each curve was adjusted using an internal reference point taken from the 94° C. data point for that data set. In that regard, the fluorescence signals are normalized to give equal intensities at 94 C so that their relative changes with temperature can be easily compared. […] This attribute may be useful when, for example, dye calibration they be one at a different temperature from a run temperature, or could be useful for normalizing experimental variations as previously discussed.

[3] = Stability of reference dye incubated in TaqMan Universal PCR Master Mix, judged by Ct values; conditions: room temperature in TaqMan Universal PCR Master Mix, 1 day to 4 weeks; consistent Ct values
Experimental: FIG. 11 depicts the stability of Sulfo-DDAO in a master mix, and incubated with various additional additives. Sulfo-DDAO was incubated in TaqMan® Universal PCR Master Mix at room temperature for 1 day, 1 week, 2 weeks, or 4 weeks. At each designated time point, fixed quantities of various, different target polynucleotides and various dye-labeled TaqMan® probes, were added. The target/probe mixtures were PCR amplified in a 96 well plate and the signals recorded after each amplification cycle to generate an amplification count from which a Ct value was determined for each target/probe mixture, using Sulfo-DDAO as a reference dye. FIG. 11 is a graph showing the results of that experiment, with the Ct values plotted for each time point. The Sulfo-DDAO signal was stable at room temperature in TaqMan® Universal PCR Master Mix for up to 4 weeks, as evidenced by the consistent Ct values obtained at different incubation times for the different target/probe mixtures, using Sulfa-DDAO as a reference dye.

| Structure (SMILES) | resilience to oxidation (fluorescence emission decay) [1] | stability of fluorescence emission across temperature [2] | stability of reference dye signal in master mix [3] |
| --- | --- | --- | --- |
| CC1(C)C2=C(Cl)C(=O)C(Cl)=CC2=Nc2ccc(O)cc21 [DDAO, 1,3-dichloro-7-hydroxy-9,9-dimethylacridin-2(9H)-one] | show resilience to oxidation | – | – |
| CC1(C)C2=C(Cl)C(=O)C(Cl)=CC2=Nc2cc(S(=O)(=O)O)c(O)cc21 [Sulfo-DDAO, 6,8-dichloro-2-hydroxy-9,9-dimethyl-7-oxo-7,9-dihydroacridine-3-sulfonic acid] | show resilience to oxidation | fairly stable | stable |
